From US20160120932A1, “TRANSPLANT SITE-FORMING AGENT, TRANSPLANT SITE-FORMING DEVICE, ANGIOGENIC AGENT AND ANGIOGENIC DEVICE” (Kyoto University, priority 2014, published 2016)

Columns and labels:
[1] = tested on: subcutaneous tissue of diabetic ACI rats; assay: Evaluation of effect of inducing angiogenesis: observation of tissue around agarose rod implanted under the skin (gross and HE-stained slice); format: in vivo, rat
Procedure: (§1) Diabetic rats were prepared by intraperionerally administering streptozocin (STZ) to ACI rats (8-week old, male). The blood glucose level of the rats were measured, and it was determined that diabetes was induced when the blood glucose level exceeded 400 mg/dL for 2 days in succession. A substrate formed of 4.5% agarose gel having a rod shape of 25 mm in length and 4 mm in diameter was impregnated with SEK-1005 (100 μg) dissolved in alcohol. After sufficiently evaporating alcohol, the agarose rod was impregnated with physiological saline. The agarose rods were implanted under the skin of the diabetic rats at two portions, on the right side and on the left side of the backbone, respectively. As a control, agarose rods that were impregnated with physiological saline without SEK-1005 were implanted under the skin of a diabetic rat, on the right side and on the left side of the backbone, respectively.
Ten days after the implantation, the agarose rods were removed and the surrounding tissues were observed.

[2] = tested on: subcutaneous tissue of diabetic ACI rats; assay: Amount of hemoglobin in subcutaneous tissue at contact portion with the agarose rod; format: in vivo, rat; settings: agarose rod containing 10 μg or 100 μg of SEK-1005, implanted for 10 days
Procedure: as §1
The data shown in FIG. 3 are the measurement results of the amount of hemoglobin of a diabetic ACI rat to which an agarose rod was not implanted, a diabetic rat implanted with an agarose rod not containing SEK-1005, a diabetic rat implanted with an agarose rod containing 10 μg of SEK-1005, and a diabetic rat implanted with an agarose rod containing 100 μg of SEK-1005. The measurement was conducted after removing the agarose rod that had been implanted for 10 days. […]

diabetic ACI rats [3] = assay: Blood glucose level of recipients after transplanting pancreatic islets to the site from which the agarose rod was removed; format: in vivo; settings: SEK-1005 rods removed after 10 days, 3000 pancreatic islets from F344 rat transplanted; casual blood glucose level
Procedure: as §1
Pancreatic islets were separated from a F344 rat as a donor, and were transplanted to the diabetic ACI rats as prepared above as recipients. Specifically, the agarose rods containing SEK-1005 as prepared in the same process as described above were implanted on the right side and on the left side of the backbone of the diabetic rats, respectively, and were removed 10 days after the implantation. […]

diabetic ACI rats [4] = assay: Plasma insulin concentration of recipients after transplanting pancreatic islets; format: in vivo, rat; settings: at 40 days and at 90 days after transplanting the pancreatic islets; casual measurements
Text: (§2) Pancreatic islets were separated from a F344 rat as a donor, and were transplanted to the diabetic ACI rats as prepared above as recipients. Specifically, the agarose rods containing SEK-1005 as prepared in the same process as described above were implanted on the right side and on the left side of the backbone of the diabetic rats, respectively, and were removed 10 days after the implantation. Thereafter, 1500 pancreatic islets separated from the […] rat were transplanted to each of the spaces formed by removing the agarose rods, respectively (3000 pancreatic islets in total).
The error bars in FIG. 6 each indicate standard deviations (normal; n=4, diabetic; n=3, 40 days after transplantation; n=4, 90 days after transplantation; n=4). The values of the plasma insulin concentration are casual measurements.

diabetic ACI rats [5] = assay: Glucose tolerance test of recipients after transplantation of pancreatic islets; format: in vivo, rat; settings: glucose intraperitoneally (60 mg/kg)
Text: as §2
In the test, changes in the blood glucose level after intraperitoneally administering glucose (60 mg/kg) were examined.
Further, glucose was administered in the same manner as the above to the recipients at 100 to 105 days after the transplantation of pancreatic islets, and the changes in the blood glucose level were examined. As a result, a trend that a degree of decrease in blood glucose level was less than the recipients at 50 to 55 days after the transplantation of the pancreatic islets was observed. […] On the other hand, the diabetic rats maintained a blood glucose level of as high as approximately 500 mg/dL. The error bars in FIG. 7 each indicate standard deviations (normal; n=4, diabetic; n=3, 40 days after transplantation; n=4, 90 days after transplantation; n=4).

diabetic ACI rats [6] = assay: HE-stained and immunofluorescent-stained tissue slice of the transplant site; format: in vivo, rat; settings: 106 days after transplantation
Text: as §2
The upper images in FIG. 8 are photographs of a HE-stained tissue slice prepared from a site at which the pancreatic islets were transplanted, obtained from a recipient with a normalized blood glucose level at 106 days after the transplantation of the pancreatic islets.
The lower image in FIG. 8 is an immunofluorescent-stained image of a tissue slice obtained at the substantially same site to the HE-stained tissue slice.

[7] = tested on: white blood cells or bone-marrow cells; settings: JP-A H10-259134; cited from earlier work
diabetic rat = settings: device containing bFGF; cited from earlier work

Compound | development of blood vessels having a small diameter at the surrounding tissue (FIG. 1) ([1]; agarose rod containing SEK-1005 (100 μg) implanted under the skin for 10 days, compared to rod not containing SEK-1005) | development of blood vessels having a small diameter in HE-stained subcutaneous tissue slice (FIG. 2) ([1]; contact portion with agarose rod containing SEK-1005, compared with rod not containing SEK-1005) | amount of hemoglobin in the subcutaneous tissue (FIG. 3) [2] | blood glucose levels of recipients (FIG. 4) (diabetic ACI rats [3]) | plasma insulin concentration versus diabetic rat to which pancreatic islets were not transplanted (FIG. 6) (diabetic ACI rats [4]) | plasma insulin concentration versus normal rat (FIG. 6) (diabetic ACI rats [4]) | changes in blood glucose level in glucose tolerance test (FIG. 7) (diabetic ACI rats [5]; 50 to 55 days after transplantation) | changes in blood glucose level in glucose tolerance test (FIG. 7) (diabetic ACI rats [5]; 100 to 105 days after transplantation) | blood vessels in the cell clumps, HE-stained tissue slice of transplant site (FIG. 8) (diabetic ACI rats [6]) | insulin-positive cells in immunofluorescent-stained tissue slice (FIG. 8) (diabetic ACI rats [6]) | pancreatic islet cell clumps in HE-stained tissue slice of transplant site (FIG. 8) (diabetic ACI rats [6]; recipient with normalized blood glucose level) | amount of granulation tissue [7] | blood glucose level after transplanting pancreatic islets at the site after removing the device (diabetic rat) | generation of blood vessels at the site under the skin where the device was implanted (diabetic rat)
CC(C)CC1CCC(O)(C(C)(O)C(=O)NC2C(=O)N3NCCCC3C(=O)N(O)C(C)C(=O)N(C)C(Cc3ccccc3)C(=O)N3NCCCC3C(=O)NC(CO)C(=O)OC2C(C)C)OC1C (stereo not drawn) [SEK-1005, Ser,3-hydroxy-N-[2-hydroxy-1-oxo-2-tetrahydro-2-hydroxy-6-methyl-5-(2-methylpropyl)-2H-pyran-2-yl-propyl]-Leu-Pip(hexahydro-3-pyridazinecarbonyl)-N-hydroxy-Ala-N-methyl-Phe-Pip-rho-lactone] | blood vessels having a small diameter were developed | blood vessels having a small diameter were developed | increased | four in six recipients were normalized over 100 days | significantly higher | did not show a significant difference | controlled to a similar level to a normal rat | controlled to a degree similar to that of a normal rat | many blood vessels having a small diameter penetrated the cell clumps | insulin-positive cells were observed | many cell clumps which were considered to be pancreatic islets existed | increasing the amount of a granulation tissue | – | –
bFGF: basic fibroblast growth factors, a substance for inducing angiogenesis | – | – | – | – | – | – | – | – | – | – | – | – | normalized during a long period of time | generation of blood vessels having a small diameter was observed
